Where two headings read alike, the source gives them in different places.
How the values were obtained:
[1] = tested on: pancreatic cancer cell lines (e.g. MIA PaCa-2); experiment: Cell based assay, cell viability (CellTiter-Glo), pancreatic cancer cell lines; settings: Homo sapiens
Experimental: (§1) Commercially available bladder cancer, prostate cancer, lung cancer, breast cancer, blood cancer, pancreatic cancer, colorectal cancer, brain cancer, neuroblastoma, melanoma, liver cancer, cervical carcinoma, ovarian cancer, renal cancer, and papilloma cell lines were each treated with trypsin-EDTA and cultured, followed by being seeded in each well of a 96 well plate. After 24 hours of treatment at constant temperature, the respective cells were treated with the candidate compound so that a final concentration became 0 to 2 μM. The treated cells were additionally cultured for 72 hours, and cell viability was measured by using an ATP detection method (CellTiter-Glo® Luminescent Cell Viability Assay, Promega).

[2] = tested on: cervical carcinoma cell lines; experiment: Cell based assay, cell viability (CellTiter-Glo), cervical carcinoma cell lines; settings: Homo sapiens; HeLa cells
Experimental: as §1, with “After 24 hours of treatment at constant temperature, the respective cells were treated with the candidate compound so that a final concentration became 0 to 2 μM.” left out

[3] = tested on: blood cancer cell lines (e.g. HL-60, Jurkat, Raji, Ramos, Daudi, MOLT-4); experiment: Cell based assay, cell viability (CellTiter-Glo), blood cancer cell lines; settings: Homo sapiens
Experimental: as §1

[4] = pancreatic cancer cell line AsPC-1, 72 hours, read-out: IC50, AsPC-1
[5] = pancreatic cancer cell line BxPC-3, 72 hours, read-out: IC50, BxPC-3
[6] = pancreatic cancer cell line CFPAC-1, 72 hours, read-out: IC50, CFPAC-1
[7] = pancreatic cancer cell line Capan-1, 72 hours, read-out: IC50, Capan-1
[8] = pancreatic cancer cell line Capan-2, 72 hours, read-out: IC50, Capan-2
[9] = pancreatic cancer cell line MIA PaCa-2, 72 hours, read-out: IC50, MIA PaCa-2
[10] = pancreatic cancer cell line PANC-1, 72 hours, read-out: IC50, PANC-1
[11] = MV4-11, blood cancer cell line MV-4-11, 72 hours, read-out: IC50, MV-4-11
[12] = blood cancer cell line Daudi, 72 hours, read-out: IC50, Daudi
[13] = blood cancer cell line HL-60, 72 hours, read-out: IC50, HL-60
[14] = blood cancer cell line Jurkat, 72 hours, read-out: IC50, Jurkat
[15] = blood cancer cell line MOLT-4, 72 hours, read-out: IC50, MOLT-4
[16] = blood cancer cell line Raji, 72 hours, read-out: IC50, Raji
[17] = blood cancer cell line Ramos (RA 1), 72 hours, read-out: IC50, Ramos (RA 1)
[18] = blood cancer cell line U-937, 72 hours, read-out: IC50, U-937

Structure (SMILES)	IC50 [1, 4] [nM]	IC50 [1, 5] [nM]	IC50 [1, 6] [nM]	IC50 [1, 7] [nM]	IC50 [1, 8] [nM]	IC50 [1, 9] [nM]	IC50 [1, 10] [nM]	IC50 [2] [nM]	IC50 [3, 11] [nM]	IC50 [3, 12] [nM]	IC50 [3, 13] [nM]	IC50 [3, 14] [nM]	IC50 [3, 15] [nM]	IC50 [3, 16] [nM]	IC50 [3, 17] [nM]	IC50 [3, 18] [nM]
CC(=O)c1c(SCc2ccc(Cl)cc2)[nH]c2c(Br)ccc(Cl)c2c1=O [Compound 10, 3-acetyl-8-bromo-5-chloro-2-((4-chlorobenzyl)thio)quinolin-4(1H)-one]	> 2000	> 2000	> 10000	> 2000	> 2000	> 2000	> 2000	> 10000	> 2000	> 2000	> 2000	> 2000	> 2000	> 2000	> 2000	> 2000
CC(=O)c1c([S+]([O-])Cc2ccc(Cl)cc2)[nH]c2c(Br)ccc(Cl)c2c1=O (stereo not drawn) [Compound 11, 3-acetyl-8-bromo-5-chloro-2-((4-chlorobenzyl)sulfinyl)quinolin-4(1H)-one]	> 2000	> 2000	> 10000	> 2000	> 2000	> 2000	> 2000	> 10000	> 2000	> 2000	> 2000	> 2000	> 2000	> 2000	> 2000	> 2000
CC(=O)c1c(Sc2ccccc2)[nH]c2c(Br)ccc(Cl)c2c1=O [Compound 12, 3-acetyl-8-bromo-5-chloro-2-(phenylthio)quinolin-4(1H)-one]	> 2000	> 2000	> 10000	> 2000	> 2000	> 2000	> 2000	> 10000	> 2000	> 2000	> 2000	> 2000	> 2000	> 2000	> 2000	> 2000
CC(=O)c1c([S+]([O-])c2ccccc2)[nH]c2c(Br)ccc(Cl)c2c1=O (stereo not drawn) [Compound 13, 3-acetyl-8-bromo-5-chloro-2-(phenylsulfinyl)quinolin-4(1H)-one]	> 2000	> 2000	> 10000	> 2000	> 2000	> 2000	> 2000	> 10000	> 2000	> 2000	> 2000	> 2000	> 2000	> 2000	> 2000	> 2000
COc1ccccc1Sc1[nH]c2c(Br)ccc(Cl)c2c(=O)c1C(C)=O [Compound 14, 3-acetyl-8-bromo-5-chloro-2-((2-methoxyphenyl)thio)quinolin-4(1H)-one]	> 2000	> 2000	> 10000	> 2000	> 2000	> 2000	> 2000	> 10000	> 2000	> 2000	> 2000	> 2000	> 2000	> 2000	> 2000	> 2000
COc1ccccc1[S+]([O-])c1[nH]c2c(Br)ccc(Cl)c2c(=O)c1C(C)=O (stereo not drawn) [Compound 15, 3-acetyl-8-bromo-5-chloro-2-((2-methoxyphenyl)sulfinyl)quinolin-4(1H)-one]	> 2000	> 2000	> 10000	> 2000	> 2000	1630	> 2000	> 10000	> 2000	> 2000	> 2000	> 2000	> 2000	> 2000	> 2000	> 2000
CC(=O)c1c(Sc2ccc(Br)cc2)[nH]c2c(Br)ccc(Cl)c2c1=O [Compound 16, 3-acetyl-8-bromo-2-((4-bromophenyl)thio)-5-chloroquinolin-4(1H)-one]	> 2000	> 2000	> 10000	> 2000	> 2000	> 2000	> 2000	> 10000	> 2000	> 2000	> 2000	> 2000	> 2000	> 2000	> 2000	> 2000
CC(=O)c1c([S+]([O-])c2ccc(Br)cc2)[nH]c2c(Br)ccc(Cl)c2c1=O (stereo not drawn) [Compound 17, 3-acetyl-8-bromo-2-((4-bromophenyl)sulfinyl)-5-chloroquinolin-4(1H)-one]	> 2000	> 2000	> 10000	> 2000	> 2000	> 2000	> 2000	> 10000	> 2000	> 2000	> 2000	> 2000	> 2000	> 2000	> 2000	> 2000
CSc1c(C(C)=O)c(=O)c2c(Cl)ccc(Br)c2n1C(C)=O [Compound 18, 1,1′-(8-bromo-5-chloro-2-(methylthio)-4-oxoquinoline-1,3(4H)-diyl)bis(ethan-1-one)]	> 2000	> 2000	> 10000	> 2000	> 2000	> 2000	> 2000	> 10000	> 2000	> 2000	> 2000	> 2000	> 2000	> 2000	> 2000	> 2000
